In EP0054589B1, “Organic phosphoric acid ester derivatives, a process for preparing the same and insecticidal, miticidal or nematocidal compositions containing the same” (priority 1980, dated 1982):

Legend:
[1] = system: rice stem borer; experiment: Insecticidal effect on rice stem borer, 3rd-instar larvae (rice seedling dip); format: in vivo, Chilo suppressalis; conditions: Table 1, after 72 hours, 25°C, wettable powder as Formulation Example 5
In short: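 Wettable-powder formulations were diluted in water to set concentrations, and rice seedlings were dipped in them. Ten 3rd-instar larvae were placed per capped cup with the treated seedlings and held at 25°C.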

[2] = system: egg plant; experiment: Phytotoxicity observed visually in the mite test on egg plant; format: in vivo; parameters: key: —: None; +: Slightly toxic; ++: Toxic; +++: Strongly toxic; conditions: 500 ppm, observed visually on the 7th day after the application
Description: (§1) (A) An emulsifiable concentrate prepared as described in Formulation Example 1 and diluted to a predetermined concentration was sprayed using a spray-gun on a seedling of an egg plant placed in a pot of 12 cm in diametre to which plant carmine mites resistant to Kelthane were parasitic. After drying in air, seedlings were kept in a green house, and the number of living insects was recorded on the 7th, 14th, 21 st and 28th day from the day of application to determine the control effects. Three pots were used for each treatment. The control effect was assessed by the formula described in TEST EXAMPLE 7 above. Further, phytotoxicity was observed visually on the 7th day after the application.
as §1, with “(B) An” for “(A) An”, “Example 3” for “Example 1”, “in diameter” for “in diametre”, “in Test” for “in TEST”

[3] = system: Cucumber; experiment: Phytotoxicity on various crops; format: in vivo; parameters: key: Symbol — indicates that no toxicity was observed; conditions: 500 ppm sprayed; checked visually after 10 days
In short: (§2)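 Damage is judged visually 10 days after foliar spraying. Each compound is applied as a water-diluted emulsifiable concentrate at 500 ppm effective ingredient, with plants kept in a greenhouse and three replicates run.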

[4] = system: Kidney Bean; experiment: Phytotoxicity on various crops; format: in vivo; parameters: key: Symbol — indicates that no toxicity was observed; conditions: 500 ppm sprayed; checked visually after 10 days
In short: as §2

[5] = system: Cotton; experiment: Phytotoxicity on various crops; format: in vivo; parameters: key: Symbol — indicates that no toxicity was observed; conditions: 500 ppm sprayed; checked visually after 10 days
In short: as §2

[6] = system: Apple; experiment: Phytotoxicity on various crops; format: in vivo; parameters: key: Symbol — indicates that no toxicity was observed; conditions: 500 ppm sprayed; checked visually after 10 days
In short: as §2

[7] = system: Green Pepper; experiment: Phytotoxicity on various crops; format: in vivo; parameters: key: Symbol — indicates that no toxicity was observed; conditions: 500 ppm sprayed; checked visually after 10 days
In short: as §2

[8] = system: Tea; experiment: Phytotoxicity on various crops; format: in vivo; parameters: key: Symbol — indicates that no toxicity was observed; conditions: 500 ppm sprayed; checked visually after 10 days
In short: as §2

[9] = system: Cabbage; experiment: Phytotoxicity on various crops; format: in vivo; parameters: key: Symbol — indicates that no toxicity was observed; conditions: 500 ppm sprayed; checked visually after 10 days
In short: as §2

[10] = system: egg plant; experiment: Phytotoxicity on various crops; format: in vivo; parameters: key: Symbol — indicates that no toxicity was observed; conditions: 500 ppm sprayed; checked visually after 10 days
In short: as §2

[11] = system: Tomato; experiment: Phytotoxicity on various crops; format: in vivo; parameters: key: Symbol — indicates that no toxicity was observed; conditions: 500 ppm sprayed; checked visually after 10 days
In short: as §2

[12] = system: Rice; experiment: Phytotoxicity on various crops; format: in vivo; parameters: key: Symbol — indicates that no toxicity was observed; conditions: 500 ppm sprayed; checked visually after 10 days
In short: as §2

[13] = system: Beet; experiment: Phytotoxicity on various crops; format: in vivo; parameters: key: Symbol — indicates that no toxicity was observed; conditions: 500 ppm sprayed; checked visually after 10 days
In short: as §2

[14] = system: tobacco cutworm; experiment: Insecticidal effect on tobacco cutworm (cabbage leaf dip); format: in vivo, Prodenia litura; conditions: Table 3; 500 ppm; after 48 hours, 25°C; emulsifiable concentrate as Formulation Example 1
In short: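 Cabbage leaves dipped in water-diluted emulsifiable concentrate (two formulations, tests A and B) and air-dried were fed to 3rd-instar tobacco cutworm larvae at 25°C. Percent mortality scored after 48 hours; 3 replicates of 30 insects per compound.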

[15] = system: diamond back moth; experiment: Insecticidal effect on diamond-back moth (cabbage leaf dip); format: in vivo, Plutella xylostella; conditions: Table 7; 100 ppm; after 72 hours, 25°C; emulsifiable concentrate as Formulation Example 1
In short: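 Cabbage leaves dipped 10 s in water-diluted emulsifiable concentrate at set concentration, air-dried; thirty 3rd-instar diamond-back moth larvae per cup held at 25°C. Percent mortality scored after 72 h, three replicates per treatment.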

[16] = system: carmine mites resistant to Kelthane; experiment: Miticidal effect on carmine mite resistant to Kelthane (sprayed egg plant seedling); format: in vivo, Tetranychus cinnabarius; conditions: 500 ppm; for Number of Living Mites after Application 7th Day / Number of Living Mites after Application 14th Day / Number of Living Mites after Application 21st Day / Number of Living Mites after Application 28th Day: egg plant seedling; for Control Effect (%): from mite counts on 7th, 14th, 21st and 28th day
Description: as §1
as §1, with “(B) An” for “(A) An”, “Example 3” for “Example 1”, “in diameter” for “in diametre”, “in Test” for “in TEST”

[17] = system: carmine mites; experiment: Miticidal effect on carmine mite (sprayed kidney bean seedling); format: in vivo, Tetranychus cinnabarius; conditions: 500 ppm
Description: An emulsifiable concentrate prepared as described in Formulation Example 1 and diluted to a predetermined concentration was sprayed using a spray-gun on a seedling of a kidney bean placed in a pot of 12 cm in diameter to which plant carmine mites were parasitic. After drying in air, seedlings were kept in a green house, and the number of living insects was recorded on the 7th, 14th, 21st and 28th day from the day of application to determine the control effects. Three pots were used for each treatment. The control effect was assessed by the following formula: [formula] • wherein Σ indicates sum and Cb, Tb, Cai and Tai have the following meanings. • Cb: Number of living mites in non-treated sample before application. • Tb: Number of living mites in treated sample before application. • Cai: Number of living mites in non-treated sample 7th, 14th, 21 st or 28th day from the application. • Tai: Number of living mites in treated sample 7th, 14th, 21st or 28th day from the application.

[18] = system: apple leaf miner; experiment: Insecticidal effect on apple leaf miner (sprayed apple seedling); format: in vivo, Lithocolletis ringoniella; conditions: Phyllonorycter ringoniella, 336 h; Table 10; 500 ppm; fourteen days after spraying; wettable powder as Formulation Example 5; read-out: Percent Morality (%)
In short: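 Wettable-powder suspensions were sprayed onto potted apple seedlings infested with newly hatched leaf miner larvae, then kept in a greenhouse.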

[19] = system: tobacco cutworm; experiment: Long-lasting insecticidal effect on tobacco cutworm (sprayed cabbage plantlet); format: in vivo, Prodenia litura; conditions: Table 5, concentration 500 (unit not given), mortality after 48 hours
In short: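 Cabbage plantlets sprayed with water-diluted emulsifiable concentrate and held in a greenhouse; leaves cut on days 3, 5, 7, 10 and 15 and fed to 3rd-instar larvae at 25°C. Percent mortality scored after 48 h; 3 replicates, 30 insects each.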

[20] = system: smaller tea tortrix; experiment: Insecticidal effect on smaller tea tortrix (apple leaf dip); format: in vivo; conditions: Adoxophyes orana, foliar; Table 9; 100 ppm; after 72 hours, 25°C; wettable powder as Formulation Example 5; read-out: Percent Mortality
Description: Leaves of an apple tree were dipped into a dilute water suspension of a wettable powder prepared as described in Formulation Example 5. After drying in air, the leaves were charged in a 60 ml volume cup made of vinyl chloride resin, and […] 3rd-instar larvae of smaller tea tortrix were put in each cup. The cups were capped and kept at 25°C. After 72 hours, the number of the surviving insects and the dead insects were recorded to determine percent mortality. In each treatment, 3 cups and 30 insects were used in total.

[21] = Table 13, Formulation Example 1
[22] = Table 14, Formulation Example 3

Compound	Percent Mortality (%) ([1]; 500 ppm)	Phytotoxicit ([2]; Table 13)	Phytotoxicity: Cucumber [3]	Phytotoxicity: Kidney Bean [4]	Phytotoxicity: Cotton [5]	Phytotoxicity: Apple [6]	Phytotoxicity: Green Pepper [7]	Phytotoxicity: Tea [8]	Phytotoxicity: Cabbage [9]	Phytotoxicity: Egg Plant [10]	Phytotoxicity: Tomato [11]	Phytotoxicity: Rice [12]	Phytotoxicity: Beet [13]	Percent Mortality (%) [14] [%]	Percent Mortality (%) [15] [%]	Number of Living Mites after Application 7th Day [16, 21]	Number of Living Mites after Application 14th Day [16, 21]	Number of Living Mites after Application 21st Day [16, 21]	Number of Living Mites after Application 28th Day [16, 21]	Control Effect (%) ([16]; Table 13)	also measured
CCOP(=S)(Oc1ccc2c(c1)OC(C)=CC2(C)C)SC(C)CC (stereo not drawn) [compound 11]	100	—	—	—	—	—	—	—	—	—	—	—	—	100	100	0	3	10	48	97.0	Phytotoxicit ([2]; Table 14): —; Number of Living Mites after Application 7th Day [16, 22]: 0; Number of Living Mites after Application 14th Day [16, 22]: 2; Number of Living Mites after Application 21st Day [16, 22]: 17; Number of Living Mites after Application 28th Day [16, 22]: 56; Control Effect (%) ([16]; Table 14): 93.1%
OC(c1ccc(Cl)cc1)(c1ccc(Cl)cc1)C(Cl)(Cl)Cl [Kelthane, 2,2,2-trichloro-1,1-bis(4-chlorophenyl)ethanol, reference compound]		+++(*)														32	0	118	269	61.5	Control Effect (%) ([17]; Table 12, from mite counts on 7th, 14th, 21st and 28th day): 99.0%; Number of Living Mites after Application 7th Day ([17]; Table 12, kidney bean seedling): 0; Number of Living Mites after Application 14th Day ([17]; Table 12, kidney bean seedling): 0; Number of Living Mites after Application 21st Day ([17]; Table 12, kidney bean seedling): 5; Number of Living Mites after Application 28th Day ([17]; Table 12, kidney bean seedling): 15; Phytotoxicit ([2]; Table 14): +++(*); Number of Living Mites after Application 7th Day [16, 22]: 31; Number of Living Mites after Application 14th Day [16, 22]: 58; Number of Living Mites after Application 21st Day [16, 22]: 156; Number of Living Mites after Application 28th Day [16, 22]: 301; Control Effect (%) ([16]; Table 14): 32.3%
CCOP(=O)(Oc1ccc2c(c1)OC(C)=CC2(C)C)SC(C)CC (stereo not drawn) [compound 6]	100	—	—	—	—	—	—	—	—	—	—	—	—	100	100	0	0	10	54	96.4	Control Effect (%) [17]: 94.9%; Number of Living Mites after Application 7th Day [17]: 0; Number of Living Mites after Application 14th Day [17]: 0; Number of Living Mites after Application 21st Day [17]: 4; Number of Living Mites after Application 28th Day [17]: 45
CCC(C)SP(=O)(OC)Oc1ccc2c(c1)OC(C)=CC2(C)C (stereo not drawn) [Compound No. 16, O-methyl-S-sec-butyl-O-(2,4,4-trimethyl-1,4-benzopyran-7-yi) phosphorothioate]	100		—	—	—	—	—	—	—	—	—	—	—	100	100						mortality at 500 ppm [18]: 100%; Percent Mortality (%) ([1]; 100 ppm): 100%; Percent Mortality After Application 3rd Day ([19]; leaves cut on 3rd day): 100%; Percent Mortality After Application 5th Day ([19]; leaves cut on 5th day): 100%; Percent Mortality After Application 7th Day ([19]; leaves cut on 7th day): 100%; Percent Mortality After Application 10th Day ([19]; leaves cut on 10th day): 100%; Percent Mortality After Application 15th Day ([19]; leaves cut on 15th day): 100%; mortality at 100 ppm [20]: 100%
